{
  "source": "patent US8956669B2",
  "about": "“Anticancer and antimicrobial compounds from antarctic extremophilic microorgansims” (priority 2009, dated 2015)",
  "origin": "cited, not measured here",
  "key": {"Mycobacterium smegmatis": {"test_system": "Mycobacterium smegmatis", "settings": "literature values, Table 2"}, "[1]": {"test_system": "Mycobacterium tuberculosis", "settings": "literature values, Table 2"}},
  "note": "Marks after values point to notes of the source that are not given here.",
  "data": [
    {"compound": "O=c1cc(-c2ccccc2O)oc2cc(O)cc(O)c12", "note": "[5,7,2′-trihydroxyflavone]", "values": [
      {"measurement": "MIC against Mycobacterium smegmatis", "setting": "Mycobacterium smegmatis", "result": "31^h μg/ml"},
      {"measurement": "MIC against Mycobacterium tuberculosis", "setting": "[1]", "result": "10^h μg/ml"}
    ]},
    {"compound": "C=CCS[S+]([O-])CC=C", "note": "(stereo not drawn) [Allicin]", "values": [
      {"measurement": "MIC against Mycobacterium tuberculosis", "setting": "[1]", "result": "25^k μg/ml"}
    ]},
    {"compound": "O=c1cc(-c2ccccc2)oc2cc(O)c(O)c(O)c12", "note": "[Baicalein]", "values": [
      {"measurement": "MIC against Mycobacterium smegmatis", "setting": "Mycobacterium smegmatis", "result": "64^a μg/ml"}
    ]},
    {"compound": "O=C(O)[C@H]1O[C@@H](Oc2cc3oc(-c4ccccc4)cc(=O)c3c(O)c2O)[C@H](O)[C@@H](O)[C@@H]1O", "note": "[Baicalin]", "values": [
      {"measurement": "MIC against Mycobacterium smegmatis", "setting": "Mycobacterium smegmatis", "result": "256^a μg/ml"}
    ]},
    {"compound": "COc1ccc(-c2coc3cc(O)cc(O)c3c2=O)cc1", "note": "[Biochanin A]", "values": [
      {"measurement": "MIC against Mycobacterium smegmatis", "setting": "Mycobacterium smegmatis", "result": "256^a μg/ml"}
    ]},
    {"compound": "CN(C)CCCN1c2ccccc2Sc2ccc(Cl)cc21", "note": "[Chlorpromazine]", "values": [
      {"measurement": "MIC against Mycobacterium smegmatis", "setting": "Mycobacterium smegmatis", "result": "64^a μg/ml"}
    ]},
    {"compound": "O=C(O)c1cn(C2CC2)c2cc(N3CCNCC3)c(F)cc2c1=O", "note": "[Ciprofloxacin]", "values": [
      {"measurement": "MIC against Mycobacterium smegmatis", "setting": "Mycobacterium smegmatis", "result": "1^c μg/ml"},
      {"measurement": "MIC against Mycobacterium tuberculosis", "setting": "[1]", "result": "0.5^g μg/ml"}
    ]},
    {"compound": "O=c1c(-c2ccc(O)cc2)coc2cc(O)ccc12", "note": "[Daidzein]", "values": [
      {"measurement": "MIC against Mycobacterium smegmatis", "setting": "Mycobacterium smegmatis", "result": "256^a μg/ml"}
    ]},
    {"compound": "Cc1cc(O)c2c(c1)C(=O)C(c1c(C)cc3c(c1O)C(=O)C=CC3=O)=CC2=O", "note": "[Diospyrin]", "values": [
      {"measurement": "MIC against Mycobacterium smegmatis", "setting": "Mycobacterium smegmatis", "result": "100^j μg/ml"},
      {"measurement": "MIC against Mycobacterium tuberculosis", "setting": "[1]", "result": "100^j μg/ml"}
    ]},
    {"compound": "O=c1c(-c2ccc(O)cc2)coc2cc(O)cc(O)c12", "note": "[Genistein]", "values": [
      {"measurement": "MIC against Mycobacterium smegmatis", "setting": "Mycobacterium smegmatis", "result": "256^a μg/ml"}
    ]},
    {"compound": "NNC(=O)c1ccncc1", "note": "[Isoniazid]", "values": [
      {"measurement": "MIC against Mycobacterium smegmatis", "setting": "Mycobacterium smegmatis", "result": "5^b μg/ml"},
      {"measurement": "MIC against Mycobacterium tuberculosis", "setting": "[1]", "result": "0.1^f μg/ml"}
    ]},
    {"compound": "O=c1cc(-c2ccc(O)c(O)c2)oc2cc(O)cc(O)c12", "note": "[Luteolin]", "values": [
      {"measurement": "MIC against Mycobacterium smegmatis", "setting": "Mycobacterium smegmatis", "result": "32^a μg/ml"},
      {"measurement": "MIC against Mycobacterium tuberculosis", "setting": "[1]", "result": "200^d μg/ml"}
    ]},
    {"compound": "O=c1c(O)c(-c2cc(O)c(O)c(O)c2)oc2cc(O)cc(O)c12", "note": "[Myricetin]", "values": [
      {"measurement": "MIC against Mycobacterium smegmatis", "setting": "Mycobacterium smegmatis", "result": "32^a μg/ml"}
    ]},
    {"compound": "COC(=O)[C@H]1[C@H]2C[C@@H]3c4[nH]c5cc(OC)ccc5c4CCN3C[C@H]2C[C@@H](OC(=O)c2cc(OC)c(OC)c(OC)c2)[C@@H]1OC", "note": "[Reserpine]", "values": [
      {"measurement": "MIC against Mycobacterium smegmatis", "setting": "Mycobacterium smegmatis", "result": "128^a μg/ml"}
    ]},
    {"compound": "Oc1ccc(C=Cc2cc(O)cc(O)c2)cc1", "note": "[Resveratrol]", "values": [
      {"measurement": "MIC against Mycobacterium smegmatis", "setting": "Mycobacterium smegmatis", "result": "64^a μg/ml"}
    ]},
    {"compound": "CO[C@H]1/C=C/O[C@@]2(C)Oc3c(C)c(O)c4c(O)c(c(/C=N/N5CCN(C)CC5)c(O)c4c3C2=O)NC(=O)/C(C)=C\\C=C\\[C@H](C)[C@H](O)[C@@H](C)[C@@H](O)[C@@H](C)[C@H](OC(C)=O)[C@@H]1C", "note": "[Rifampcin]", "values": [
      {"measurement": "MIC against Mycobacterium smegmatis", "setting": "Mycobacterium smegmatis", "result": "1^b μg/ml"},
      {"measurement": "MIC against Mycobacterium tuberculosis", "setting": "[1]", "result": "0.1^f μg/ml"}
    ]},
    {"compound": "COc1ccc(CCN(C)CCCC(C#N)(c2ccc(OC)c(OC)c2)C(C)C)cc1OC", "note": "(stereo not drawn) [Verapamil]", "values": [
      {"measurement": "MIC against Mycobacterium smegmatis", "setting": "Mycobacterium smegmatis", "result": "256^a μg/ml"}
    ]},
    {"compound": "Cc1cc(O)c2c(c1)C(=O)c1c(oc3c1c(=O)oc1cccc(C)c13)C2=O", "note": "[crassiflorone]", "values": [
      {"measurement": "MIC against Mycobacterium smegmatis", "setting": "Mycobacterium smegmatis", "result": "1.22^l μg/ml"},
      {"measurement": "MIC against Mycobacterium tuberculosis", "setting": "[1]", "result": "39.06^l μg/ml"}
    ]},
    {"compound": "CC1=CC(=O)c2c(O)cccc2C1=O", "note": "[plumbagin]", "values": [
      {"measurement": "MIC against Mycobacterium smegmatis", "setting": "Mycobacterium smegmatis", "result": "1.22^l μg/ml"},
      {"measurement": "MIC against Mycobacterium tuberculosis", "setting": "[1]", "result": "39.06^l μg/ml"}
    ]},
    {"compound": "Diospyrone", "values": [
      {"measurement": "MIC against Mycobacterium smegmatis", "setting": "Mycobacterium smegmatis", "result": "1.22^l μg/ml"},
      {"measurement": "MIC against Mycobacterium tuberculosis", "setting": "[1]", "result": "39.06^l μg/ml"}
    ]},
    {"compound": "Laburnetin", "values": [
      {"measurement": "MIC against Mycobacterium tuberculosis", "setting": "[1]", "result": "4.88^e μg/ml"}
    ]}
  ]
}
